Read-outs that look alike come from different tables or passages of the source.
Assays:
[1] = target: T1, RORγ ligand binding domain (LBD) (Homo sapiens, UniProt P51449); assay: TR-FRET Activity Assay (ligand sensing, RORγ-LBD / coactivator peptide interaction, LANCE); format: biochemical
T1 construct: made in house; host or cells: E. coli BL-21 (BL3), vector pDEST15
T1 sequence (P51449 269-508 limits assumed): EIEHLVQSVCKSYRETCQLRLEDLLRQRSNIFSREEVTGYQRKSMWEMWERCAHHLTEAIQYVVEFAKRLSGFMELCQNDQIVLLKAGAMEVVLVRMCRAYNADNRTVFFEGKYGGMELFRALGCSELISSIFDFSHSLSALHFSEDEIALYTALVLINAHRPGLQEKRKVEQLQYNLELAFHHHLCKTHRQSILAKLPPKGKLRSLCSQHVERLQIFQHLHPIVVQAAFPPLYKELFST

RORγ = target: T2, RORγ (UniProt P51449); assay: RORγ Gal4 Reporter Gene Assay in 293T cells (firefly and renilla luciferase); format: cell-based, human
T2 sequence (P51449 1-518): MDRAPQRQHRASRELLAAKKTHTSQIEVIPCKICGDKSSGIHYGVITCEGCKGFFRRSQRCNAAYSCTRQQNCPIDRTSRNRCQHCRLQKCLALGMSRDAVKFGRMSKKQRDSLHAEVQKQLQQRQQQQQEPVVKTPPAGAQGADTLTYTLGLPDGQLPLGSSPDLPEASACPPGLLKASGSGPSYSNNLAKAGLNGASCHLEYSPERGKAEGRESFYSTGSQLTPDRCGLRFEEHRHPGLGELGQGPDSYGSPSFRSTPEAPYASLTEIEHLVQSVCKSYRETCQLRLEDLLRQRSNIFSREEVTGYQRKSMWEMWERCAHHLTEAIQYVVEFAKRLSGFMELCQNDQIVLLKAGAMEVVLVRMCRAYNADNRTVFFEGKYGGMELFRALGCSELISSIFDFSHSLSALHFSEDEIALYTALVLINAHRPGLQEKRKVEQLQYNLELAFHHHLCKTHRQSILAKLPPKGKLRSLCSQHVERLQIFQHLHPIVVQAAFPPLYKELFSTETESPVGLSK

[2] = first value of the cell FRET/FF/REN, TR-FRET activity assay, read-out: pIC50 (FRET) (converted)
[3] = second value of the cell, Gal4 reporter gene assay in 293T cells, firefly luciferase
[4] = third value of the cell, Gal4 reporter gene assay in 293T cells, renilla normalised luciferase

SMILES	IC50 [1] [nM]	pIC50 (FF) (RORγ)	pIC50 (REN) (RORγ)	IC50 [1, 2] [nM]	pIC50 (FF) (RORγ; [3])	pIC50 (REN) (RORγ; [4])
Cc1c(C(=O)NC2COC2)cc(-c2cc(C(=O)N(C)C(C)(C)C)cc(C(C)(C)C)c2)n1CC1CCCCC1 [15/4]	1580	5.8/7.3/7.3	5.8/7.3/7.3	–	–	–
Cc1c(C(=O)NC2CCOCC2)cc(-c2ccc(S(=O)(=O)NC(C)C(C)(C)O)c(C(F)(F)F)c2)n1CC1CCCCC1 (stereo not drawn) [17/146]	–	–	–	1000	7.4	7.5
Cc1c(C(=O)N2CC(O)C2)cc(-c2ccc(S(=O)(=O)NC(C)(C)C)c(C(C)(C)C)c2)n1CC1CCCCC1 [17/94]	–	–	–	1260	6.8	6.7
Cc1c(C(=O)NC2CC2)cc(-c2cc(C(C)(C)C)c3c(c2)C2(CCO3)CC2)n1CC1CCCCC1 [1/92]	–	–	–	200	7.0	6.9
Cc1c(C(=O)NC2CCOCC2)cc(-c2ccc(C(=O)NC3CCCCC3)c(C(C)(C)C)c2)n1CC1CCCCC1 [6/6]	631	6.2/6.8/6.7	6.2/6.8/6.7	–	–	–
Cc1c(C(=O)NCC2(O)CCS(=O)(=O)CC2)cc(-c2cc(C(C)(C)C)c3c(c2)C2(CCO3)CC2)n1CC1CCCCC1 [17/81]	631	6.2/7.1/7.1	6.2/7.1/7.1	–	–	–
CC(=O)NC(C)(C)CNC(=O)c1cc(-c2cc(C(C)(C)C)c3c(c2)C2(CCO3)CC2)n(CC2CCCCC2)c1C [17/28]	–	–	–	251	7.4	7.4
Cc1c(C(=O)NCC(C)(C)C(=O)O)cc(-c2ccc(S(=O)(=O)NC(C)(C)C)c(C(F)F)c2)n1CC1CCCCC1 [17/127]	–	–	–	316	7.1	7.2
Cc1c(C(=O)NCC(C)(C)C(N)=O)cc(-c2ccc(S(=O)(=O)NC(C)(C)C)c(C(F)(F)F)c2)n1CC1CCCCC1 [17/202]	–	–	–	316	7.7	7.7
Cc1c(C(=O)NC2CCOCC2)cc(-c2cc(C(C)(C)O)c3c(c2)C2(CCO3)CC2)n1CC1CCCCC1 [Example 31, 1-(Cyclohexylmethyl)-5-(8-(2-hydroxypropan-2-yl)spiro[chroman-4,1′-cyclopropan]-6-yl)-2-methyl-N-(tetrahydro-2H-pyran-4-yl)-1H-pyrrole-3-carboxamide]	–	–	–	1260	6.9	6.9
Cc1c(C(=O)NC2CCOCC2)cc(-c2ccc(S(=O)(=O)NC(C)(C)C)c(C(F)(F)F)c2)n1CC1(F)CCCCC1 [Example 28, 5-(4-(N-(tert-Butyl)sulfamoyl)-3-(trifluoromethyl)phenyl)-1-((1-fluorocyclohexyl)-methyl)-2-methyl-N-(tetrahydro-2H-pyran-4-yl)-1H-pyrrole-3-carboxamide]	–	–	–	1260	6.6	6.9
Cc1c(C(=O)N[C@H]2C[C@H](C(=O)O)C2)cc(-c2cc(C(=O)N[C@H](C)C(F)(F)F)cc(C3(C)CC3)c2)n1CC1CCCCC1 [17/359]	–	–	–	3160	7.4	7.4
CCC(C)(C)NS(=O)(=O)c1ccc(-c2cc(C(=O)NCC(C)(C)O)c(C)n2CC2CCCCC2)cc1C(C)(C)C [9/11]	–	–	–	501	7.7	7.8
Cc1c(C(=O)NCCS(C)(=O)=O)cc(-c2cc(C(C)(C)C)c3c(c2)C2(CCO3)CC2)n1CC1CCCCC1 [1/104]	501	6.3/6.8/6.8	6.3/6.8/6.8	–	–	–
Cc1c(C(=O)NC2CCOCC2)cc(-c2cc(C(=O)NCC(F)(F)F)cc(C3(C)CC3)c2)n1CC1CCCCC1 [17/352]	–	–	–	631	7.5	7.5
Cc1c(C(=O)NCC2(C)COC2)cc(-c2cc(C(C)(C)C)c3c(c2)C2(CCO3)CC2)n1CC1CCCCC1 [1/101]	–	–	–	251	7.2	7.2
Cc1c(C(=O)NCC(C)(C)O)cc(-c2cc(C(C)(C)C)nc3ccccc23)n1CC1CCCCC1 [17/366]	–	–	–	5010	6.6	6.3

Source: US9815851B2, “Pyrrolo carboxamides as modulators of orphan nuclear receptor RAR-related orphan receptor-gamma (RORγ, NR1F3) activity and for the treatment of chronic inflammatory and autoimmune diseases” (PHENEX PHARMACEUTICALS AG, priority 2011, dated 2017)
